Experimental data as given in US11053213B2, “Pharmaceutical compounds” (ALMAC DISCOVERY LIMITED, priority 2016, dated 2021).

Biological target: USP19 (Homo sapiens (Human), UniProt O94966)
Assay: USP19 activity assay (fluorescence polarisation, Ubiquitin-Lys-TAMRA substrate)
Type: biochemical
Settings: full-length USP19 2.5 nM, 30 min pre-incubation, Ub substrate 500 nM; average of at least two duplicate experiments

Chain of USP19 (O94966 whole entry): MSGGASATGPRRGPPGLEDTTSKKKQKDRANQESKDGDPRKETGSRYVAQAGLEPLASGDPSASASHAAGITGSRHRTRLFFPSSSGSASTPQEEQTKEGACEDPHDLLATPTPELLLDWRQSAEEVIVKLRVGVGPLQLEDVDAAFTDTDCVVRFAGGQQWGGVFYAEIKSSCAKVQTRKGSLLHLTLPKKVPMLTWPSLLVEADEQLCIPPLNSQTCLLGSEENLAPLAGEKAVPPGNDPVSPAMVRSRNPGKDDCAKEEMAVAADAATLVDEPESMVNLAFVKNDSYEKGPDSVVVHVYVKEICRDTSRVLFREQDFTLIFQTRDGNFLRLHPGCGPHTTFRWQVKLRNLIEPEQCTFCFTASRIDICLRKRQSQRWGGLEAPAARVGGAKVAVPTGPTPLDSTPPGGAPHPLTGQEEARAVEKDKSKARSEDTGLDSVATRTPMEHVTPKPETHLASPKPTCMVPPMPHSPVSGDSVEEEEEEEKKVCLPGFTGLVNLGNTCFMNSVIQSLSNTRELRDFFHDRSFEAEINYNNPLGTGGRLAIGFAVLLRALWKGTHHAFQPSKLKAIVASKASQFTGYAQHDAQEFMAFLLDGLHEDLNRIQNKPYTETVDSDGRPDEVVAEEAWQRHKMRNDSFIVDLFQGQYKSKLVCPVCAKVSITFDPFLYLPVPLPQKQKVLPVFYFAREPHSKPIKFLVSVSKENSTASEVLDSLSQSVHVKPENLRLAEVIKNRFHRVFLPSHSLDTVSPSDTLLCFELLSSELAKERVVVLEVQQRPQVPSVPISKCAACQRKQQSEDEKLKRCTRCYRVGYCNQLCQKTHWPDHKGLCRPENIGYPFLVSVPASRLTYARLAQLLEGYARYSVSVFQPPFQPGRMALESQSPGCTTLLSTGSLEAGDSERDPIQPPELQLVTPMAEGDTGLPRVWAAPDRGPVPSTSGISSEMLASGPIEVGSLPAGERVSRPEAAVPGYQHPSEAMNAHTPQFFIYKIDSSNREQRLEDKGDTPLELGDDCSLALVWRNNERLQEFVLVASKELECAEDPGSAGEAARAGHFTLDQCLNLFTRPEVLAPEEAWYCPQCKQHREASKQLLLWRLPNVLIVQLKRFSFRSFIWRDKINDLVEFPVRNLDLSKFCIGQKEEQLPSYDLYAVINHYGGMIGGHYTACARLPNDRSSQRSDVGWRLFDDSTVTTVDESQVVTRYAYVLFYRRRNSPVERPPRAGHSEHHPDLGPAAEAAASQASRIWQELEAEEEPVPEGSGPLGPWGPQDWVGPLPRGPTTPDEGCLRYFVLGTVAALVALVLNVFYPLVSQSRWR

IC50 | Structure (SMILES)
500 to 5000 nM | C[C@H](CC1CCC1)C(=O)N1CC[C@@](O)(Cn2cc(C(=O)N(C)C)c(C3CC3)cc2=O)C2(CCCC2)C1 [Example 230, 1-(((S)-7-((R)-3-Cyclobutyl-2-methylpropanoyl)-10-hydroxy-7-azaspiro[4.5]decan-10-yl)methyl)-4-cyclopropyl-N,N-dimethyl-6-oxo-1,6-dihydropyridine-3-carboxamide]
500 to 5000 nM | C[C@H](CC1CCC1)C(=O)N1CC[C@@](O)(Cn2cc(C(=O)N3CCNCC3)c(C3CC3)cc2=O)C2(CCCC2)C1 [Example 231, 1-(((S)-7-((R)-3-Cyclobutyl-2-methylpropanoyl)-10-hydroxy-7-azaspiro[4.5]decan-10-yl)methyl)-4-cyclopropyl-5-(piperazine-1-carbonyl)pyridin-2(1H)-one]
< 500 nM | C[C@H](CC1CCCCC1)C(=O)N1CC[C@@](O)(Cn2cc(C(=O)N(C)C)c(C3CC3)cc2=O)C2(CCCC2)C1 [Example 232, 1-(((S)-7-((R)-3-Cyclohexyl-2-methylpropanoyl)-10-hydroxy-7-azaspiro[4.5]decan-10-yl)methyl)-4-cyclopropyl-N,N-dimethyl-6-oxo-1,6-dihydropyridine-3-carboxamide]
< 500 nM | C[C@H](CC1CCCCC1)C(=O)N1CC[C@@](O)(Cn2cc(C(=O)N3CCNCC3)c(C3CC3)cc2=O)C2(CCCC2)C1 [Example 233, 1-(((S)-7-((R)-3-Cyclohexyl-2-methylpropanoyl)-10-hydroxy-7-azaspiro[4.5]decan-10-yl)methyl)-4-cyclopropyl-5-(piperazine-1-carbonyl)pyridin-2(1H)-one]
500 to 5000 nM | C[C@H](CC1CCCCC1)C(=O)N1CCC(O)(Cn2cc(C(=O)N(C)C)c(-c3ccccc3)cc2=O)C2(CCOCC2)C1 (stereo partly drawn) [Example 234, 1-((2-((R)-3-Cyclohexyl-2-methylpropanoyl)-5-hydroxy-9-oxa-2-azaspiro[5.5]undecan-5-yl)methyl)-N,N-dimethyl-6-oxo-4-phenyl-1,6-dihydropyridine-3-carboxamide]
< 500 nM | C[C@H](CC1CCCCC1)C(=O)N1CCC(O)(Cn2cc(C(=O)N(C)C)c(-c3ccccc3)cc2=O)C2(CCCCC2)C1 (stereo partly drawn) [Example 237, 1-((2-((R)-3-Cyclohexyl-2-methylpropanoyl)-5-hydroxy-2-azaspiro[5.5]undecan-5-yl)methyl)-N,N-dimethyl-6-oxo-4-phenyl-1,6-dihydropyridine-3-carboxamide]
< 500 nM | C[C@H](CC1CCCCC1)C(=O)N1CC[C@@](O)(Cn2cc(C(=O)N3CCN(C)CC3)c(-c3ccccc3)cc2=O)C2(CCCC2)C1 [Example 240, 1-(((S)-7-((R)-3-Cyclohexyl-2-methylpropanoyl)-10-hydroxy-7-azaspiro[4.5]decan-10-yl)methyl)-5-(4-methylpiperazine-1-carbonyl)-4-phenylpyridin-2(1H)-one]
500 to 5000 nM | COc1cc(=O)n(CC2(O)CCN(C(=O)[C@H](C)CC3CCCCC3)CC23CCCC3)cc1C(=O)N(C)C (stereo partly drawn) [Example 242, 1-((7-((R)-3-Cyclohexyl-2-methylpropanoyl)-10-hydroxy-7-azaspiro[4.5]decan-10-yl)methyl)-4-methoxy-N,N-dimethyl-6-oxo-1,6-dihydropyridine-3-carboxamide]
< 500 nM | CCOC(=O)c1cn(C[C@]2(O)CCN(C(=O)[C@H](C)CC3CCCCC3)CC23CCCC3)c(=O)cc1-c1ccccc1 [Example 252, Ethyl 1-(((S)-7-((R)-3-cyclohexyl-2-methylpropanoyl)-10-hydroxy-7-azaspiro[4.5]decan-10-yl)methyl)-6-oxo-4-phenyl-1,6-dihydropyridine-3-carboxylate]
< 500 nM | C[C@H](CC1CCCCC1)C(=O)N1CC[C@@](O)(Cn2cc(C(=O)O)c(-c3ccccc3)cc2=O)C2(CCCC2)C1 [Example 253, 1-(((S)-7-((R)-3-Cyclohexyl-2-methylpropanoyl)-10-hydroxy-7-azaspiro[4.5]decan-10-yl)methyl)-6-oxo-4-phenyl-1,6-dihydropyridine-3-carboxylic acid]

The remaining lines, values behind:

Structure (SMILES) | IC50
CN(C)C(=O)c1cn(CC2(O)CCN(C(=O)C3CC(C(F)(F)F)C3)CC23CCCC3)c(=O)cc1-c1ccccc1 (stereo not shown) [Example 229, 1-((10-Hydroxy-7-(3-(trifluoromethyl)cyclobutane-1-carbonyl)-7-azaspiro[4.5]decan-10-yl)methyl)-N,N-dimethyl-6-oxo-4-phenyl-1,6-dihydropyridine-3-carboxamide] | 5000 to 50000 nM
C[C@H](CC1CCC1)C(=O)N1CC[C@@](O)(Cn2cc(C(=O)N(C)C)c(-c3ccccc3F)cc2=O)C(C)(C)C1 [Example 235, 1-(((S)-1-((R)-3-Cyclobutyl-2-methylpropanoyl)-4-hydroxy-3,3-dimethylpiperidin-4-yl)methyl)-4-(2-fluorophenyl)-N,N-dimethyl-6-oxo-1,6-dihydropyridine-3-carboxamide] | 500 to 5000 nM
C[C@H](CC1CCC1)C(=O)N1CC[C@@](O)(Cn2cc(C(=O)N3CCNCC3)c(-c3ccccc3F)cc2=O)C(C)(C)C1 [Example 236, 1-(((S)-1-((R)-3-Cyclobutyl-2-methylpropanoyl)-4-hydroxy-3,3-dimethylpiperidin-4-yl)methyl)-4-(2-fluorophenyl)-5-(piperazine-1-carbonyl)pyridin-2(1H)-one] | < 500 nM
C[C@H](CC1CCCCC1)C(=O)N1CCC(O)(Cn2cc(C(=O)N3CCNCC3)c(-c3ccccc3)cc2=O)C2(CCCCC2)C1 (stereo partly drawn) [Example 238, 1-((2-((R)-3-Cyclohexyl-2-methylpropanoyl)-5-hydroxy-2-azaspiro[5.5]undecan-5-yl)methyl)-4-phenyl-5-(piperazine-1-carbonyl)pyridin-2(1H)-one] | < 500 nM
C[C@H](CC1CCCCC1)C(=O)N1CC[C@@](O)(Cn2cc(C(=O)N3CCOCC3)c(-c3ccccc3)cc2=O)C2(CCCC2)C1 [Example 239, 1-(((S)-7-((R)-3-Cyclohexyl-2-methylpropanoyl)-10-hydroxy-7-azaspiro[4.5]decan-10-yl)methyl)-5-(morpholine-4-carbonyl)-4-phenylpyridin-2(1H)-one] | < 500 nM
C[C@H](CC1CCCCC1)C(=O)N1CCC(O)(Cn2cc(C(=O)O)c(-c3ccccc3)cc2=O)C(C)(C)C1 (stereo partly drawn) [Example 241, 1-((1-((R)-3-Cyclohexyl-2-methylpropanoyl)-4-hydroxy-3,3-dimethylpiperidin-4-yl)methyl)-6-oxo-4-phenyl-1,6-dihydropyridine-3-carboxylic acid] | 500 to 5000 nM
CC(CC(F)F)C(=O)N1CCC(O)(Cn2cc(C(=O)N(C)C)c(-c3ccccc3)cc2=O)C2(CCCC2)C1 (stereo not shown) [Example 243, 1-((7-(4,4-Difluoro-2-methylbutanoyl)-10-hydroxy-7-azaspiro[4.5]decan-10-yl)methyl)-N,N-dimethyl-6-oxo-4-phenyl-1,6-dihydropyridine-3-carboxamide] | 5000 to 50000 nM
CN(C)C(=O)c1cn(CC2(O)CCN(C(=O)C(C)(C)CC(F)F)CC23CCCC3)c(=O)cc1-c1ccccc1 (stereo not shown) [Example 244, 1-((7-(4,4-Difluoro-2,2-dimethylbutanoyl)-10-hydroxy-7-azaspiro[4.5]decan-10-yl)methyl)-N,N-dimethyl-6-oxo-4-phenyl-1,6-dihydropyridine-3-carboxamide] | 5000 to 50000 nM
CN(C)C(=O)c1cn(CC2(O)CCN(C(=O)c3nc(C(F)(F)F)cs3)CC23CCCC3)c(=O)cc1-c1ccccc1 (stereo not shown) [Example 245, 1-((10-Hydroxy-7-(4-(trifluoromethyl)thiazole-2-carbonyl)-7-azaspiro[4.5]decan-10-yl)methyl)-N,N-dimethyl-6-oxo-4-phenyl-1,6-dihydropyridine-3-carboxamide] | 5000 to 50000 nM
CN(C)C(=O)c1cn(CC2(O)CCN(C(=O)c3csc(C(F)(F)F)n3)CC23CCCC3)c(=O)cc1-c1ccccc1 (stereo not shown) [Example 246, 1-((10-Hydroxy-7-(2-(trifluoromethyl)thiazole-4-carbonyl)-7-azaspiro[4.5]decan-10-yl)methyl)-N,N-dimethyl-6-oxo-4-phenyl-1,6-dihydropyridine-3-carboxamide] | 5000 to 50000 nM
CN(C)C(=O)c1cn(C[C@]2(O)CCN(C(=O)[C@H](CO)CC(F)(F)F)CC23CCCC3)c(=O)cc1-c1ccccc1 [Example 247, 1-(((S)-10-Hydroxy-7-((S)-4,4,4-trifluoro-2-(hydroxymethyl)butanoyl)-7-azaspiro[4.5]decan-10-yl)methyl)-N,N-dimethyl-6-oxo-4-phenyl-1,6-dihydropyridine-3-carboxamide] | < 500 nM
O=C(c1cn(C[C@]2(O)CCN(C(=O)[C@H](CO)CC(F)(F)F)CC23CCCC3)c(=O)cc1-c1ccccc1)N1CCOCC1 [Example 248, 1-(((S)-10-Hydroxy-7-((S)-4,4,4-trifluoro-2-(hydroxymethyl)butanoyl)-7-azaspiro[4.5]decan-10-yl)methyl)-5-(morpholine-4-carbonyl)-4-phenylpyridin-2(1H)-one] | < 500 nM
O=C(c1cn(C[C@]2(O)CCN(C(=O)[C@H](CO)CC(F)(F)F)CC23CCCC3)c(=O)cc1-c1ccccc1)N1CCNCC1 [Example 249, 1-(((S)-10-Hydroxy-7-((S)-4,4,4-trifluoro-2-(hydroxymethyl)butanoyl)-7-azaspiro[4.5]decan-10-yl)methyl)-4-phenyl-5-(piperazine-1-carbonyl)pyridin-2(1H)-one] | < 500 nM
C[C@H](CC(F)(F)F)C(=O)N1CC[C@@](O)(Cn2cc(C(=O)N3CCOCC3)c(-c3ccccc3)cc2=O)C2(CCCC2)C1 [Example 250, 1-(((S)-10-Hydroxy-7-((R)-4,4,4-trifluoro-2-methylbutanoyl)-7-azaspiro[4.5]decan-10-yl)methyl)-5-(morpholine-4-carbonyl)-4-phenylpyridin-2(1H)-one] | < 500 nM
C[C@H](CC(F)(F)F)C(=O)N1CC[C@@](O)(Cn2cc(C(=O)N3CCN(C)CC3)c(-c3ccccc3)cc2=O)C2(CCCC2)C1 [Example 251, 1-(((S)-10-Hydroxy-7-((R)-4,4,4-trifluoro-2-methylbutanoyl)-7-azaspiro[4.5]decan-10-yl)methyl)-5-(4-methylpiperazine-1-carbonyl)-4-phenylpyridin-2(1H)-one] | < 500 nM
